Assay results taken from patent US12622898B2, “Methods and compositions for improving bone marrow hematopoietic functions” (SUN YAT-SEN UNIVERSITY, priority 2019, dated 2026).

Assays:
Pdk3 expression in HSPCs = assay: Pdk3 mRNA levels and immunoblotting in HSCs treated with inhibitors; assay type: cell-based, mouse
Method: (§1) The same number of cells from each population to be analyzed were sorted into PBS with 2% FBS. The cells then were washed with PBS and Lysised by RIPA. Equal amounts of protein extracts were fractionated by 12.5% SDS-PAGE and transferred to a PVDF membrane (IPVH00010, Merck Millipore). After blocked with 5% non-fat milk in Tris-buffered saline with Tween-20 (TBST, pH 7.6) for 1 h at room temperature, the membranes were incubated with primary antibodies anti-phospho-PDHE1-A type I (Ser293) (rabbit, 1:1000, ABS204, Merck Millipore), anti-Sphk2 (rabbit, 1:1000, 17096, Proteintech), anti-PDK3 (rabbit, 1:1000, 4970s, Proteintech), or anti-βactin (rabbit, 1:1000, 2118, Cell Signaling Technology), or with primary antibodies anti-PDK3 (rabbit, 1:1000, 12215, Proteintech), anti-β-actin (rabbit, 1:1000, 4970s, Cell Signaling Technology), overnight at 4° C. and then incubated with secondary antibodies (rabbit, 1:10,000, W401B, Promega) for 1 h at room temperature, which was detected by exposure to x-ray film, or by digital imaging with a charge-coupled device camera system (Odyssey Fc). The images shown are representative of images from at least three experiments.

Pdk3 = assay: Knock-down of Pdk3 in HSCs by siRNA; assay type: cell-based, mouse
Method: Bone marrow cells were diluted to the indicated concentration in PBS and were seeded into methylcellulose medium M3434 (StemCell Technologies) for CFU-GM, CFU-GEMM, and BFU-E colony formation assays according to the manufacturer's
as §1, with “experiments. […]” for “experiments.”

Compound	Pdk3 expression in HSPCs (Pdk3 expression in HSPCs)	HSPC activity (myeloerythroid-colony-forming progenitors) (Pdk3; Sphk2 deficient HSCs)	PDH-E1α phosphorylation (Pdk3; control and Sphk2 deficient HSCs, immunoblotting)
CCCCCCCCc1ccc(CCC(N)(CO)CO)cc1 [FTY720]	not	–	–
siRNA: siRNAs (GGACCTGCATCATGAACAATG, SEQ ID NO. 1) against mouse Pdk3 cloned into lentivirus pLKO.1-puro vector	–	compromised	reduced
